Consider two compounds from patent publication US9212361B2, “Methods and pharmaceutical compositions for the treatment of hypertension” (INSERM, priority 2013, dated 2015).

The target in assay [1] is T1, MR (Rattus norvegicus, UniProt P22199).
T1 construct: endogenous in cells; host or cells: dendritic cells differentiated with GM-CSF from bone marrow stem cells of male SD rats
T1 sequence (P22199 1-981): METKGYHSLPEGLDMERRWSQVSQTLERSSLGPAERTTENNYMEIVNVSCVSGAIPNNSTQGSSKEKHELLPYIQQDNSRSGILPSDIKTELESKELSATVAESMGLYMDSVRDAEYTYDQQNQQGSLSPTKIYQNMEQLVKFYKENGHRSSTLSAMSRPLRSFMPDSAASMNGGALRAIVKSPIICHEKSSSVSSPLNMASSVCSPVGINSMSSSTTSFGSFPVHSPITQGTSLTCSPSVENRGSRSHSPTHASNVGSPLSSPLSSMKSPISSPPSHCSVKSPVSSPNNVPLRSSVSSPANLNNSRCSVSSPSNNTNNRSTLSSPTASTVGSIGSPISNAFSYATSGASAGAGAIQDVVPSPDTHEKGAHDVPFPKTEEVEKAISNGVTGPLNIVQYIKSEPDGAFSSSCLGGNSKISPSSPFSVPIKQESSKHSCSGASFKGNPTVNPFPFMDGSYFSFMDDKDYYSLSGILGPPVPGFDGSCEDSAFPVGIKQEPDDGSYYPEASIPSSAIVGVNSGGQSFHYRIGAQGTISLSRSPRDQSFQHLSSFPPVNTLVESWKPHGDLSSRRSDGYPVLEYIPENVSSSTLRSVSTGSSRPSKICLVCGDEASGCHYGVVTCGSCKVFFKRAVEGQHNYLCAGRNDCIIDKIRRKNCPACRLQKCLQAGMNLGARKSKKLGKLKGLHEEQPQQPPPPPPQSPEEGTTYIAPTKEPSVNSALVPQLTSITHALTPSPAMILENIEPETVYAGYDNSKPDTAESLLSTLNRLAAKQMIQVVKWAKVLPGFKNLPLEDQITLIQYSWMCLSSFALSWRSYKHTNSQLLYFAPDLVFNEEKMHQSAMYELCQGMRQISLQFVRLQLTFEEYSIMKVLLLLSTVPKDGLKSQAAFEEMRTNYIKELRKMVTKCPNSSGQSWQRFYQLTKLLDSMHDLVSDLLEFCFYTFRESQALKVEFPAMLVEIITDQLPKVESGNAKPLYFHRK
Nature of the assay: NGAL expression in dendritic cells incubated with aldo +/- spironolactone. The format is cell-based. To be noted: 24 hr. The method, then:
(§1) FIG. 3. NGAL is an aldo/MR target in DCs (A) and macrophages (B). A:DCs were obtained from male SD rat bone marrow stem cells and differentiated during 6 days with GM-CSF. DCs were incubated with aldo (10 nM), spironolactone (5 μM), aldo plus spironolactone, or vehicle for 24 hr. *p<0.05 by ANOVA analysis (n=4); B: peritoneal macrophages from WT mice were stimulated or not with aldo (10 nM+/−RU28318 (MR antagonist). NGAL behaves similarly as MCP1 (monocy chemoattractant protein).
(§2) Macrophages are purified from abdominal cavity from mice, after 4 days of inflammation induced by thioglycollate injection. Dendritic cells are obtained after 7 days of incubation of bone marrow precursors cells (from mice bone marrow) with GM-CSF (granulocyte macrophage colony-stimulating factor).

The target in assay [2] is T2, MR (Mus musculus, UniProt Q8VII8).
T2 construct: Macrophages are purified from abdominal cavity from mice; endogenous in cells; host or cells: thioglycollate-elicited peritoneal macrophages from WT mice
T2 sequence (Q8VII8 1-978): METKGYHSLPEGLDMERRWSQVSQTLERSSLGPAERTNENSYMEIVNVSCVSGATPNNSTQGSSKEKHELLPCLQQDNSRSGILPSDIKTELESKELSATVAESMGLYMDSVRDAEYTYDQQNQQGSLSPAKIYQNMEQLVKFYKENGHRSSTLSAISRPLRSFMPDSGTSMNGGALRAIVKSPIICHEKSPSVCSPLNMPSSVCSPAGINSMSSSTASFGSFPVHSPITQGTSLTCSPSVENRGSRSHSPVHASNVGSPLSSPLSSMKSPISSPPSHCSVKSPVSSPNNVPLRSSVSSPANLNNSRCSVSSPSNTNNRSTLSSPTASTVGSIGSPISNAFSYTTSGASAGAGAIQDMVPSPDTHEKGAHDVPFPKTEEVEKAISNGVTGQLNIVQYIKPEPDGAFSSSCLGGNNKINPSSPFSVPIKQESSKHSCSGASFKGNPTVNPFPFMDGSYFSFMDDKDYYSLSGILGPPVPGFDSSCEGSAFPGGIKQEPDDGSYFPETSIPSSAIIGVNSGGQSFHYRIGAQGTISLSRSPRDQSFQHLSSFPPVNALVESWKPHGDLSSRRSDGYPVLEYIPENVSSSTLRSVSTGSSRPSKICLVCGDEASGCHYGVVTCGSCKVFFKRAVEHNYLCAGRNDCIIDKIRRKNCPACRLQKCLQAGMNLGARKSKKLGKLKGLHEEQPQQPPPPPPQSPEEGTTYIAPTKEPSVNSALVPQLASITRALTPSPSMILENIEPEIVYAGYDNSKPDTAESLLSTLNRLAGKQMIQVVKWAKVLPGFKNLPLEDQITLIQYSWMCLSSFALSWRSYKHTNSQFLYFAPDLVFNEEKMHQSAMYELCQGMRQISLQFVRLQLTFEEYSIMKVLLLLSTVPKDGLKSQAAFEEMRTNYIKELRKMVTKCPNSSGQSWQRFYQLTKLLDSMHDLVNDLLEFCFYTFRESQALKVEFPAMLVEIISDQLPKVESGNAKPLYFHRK
Nature of the assay: NGAL expression in peritoneal macrophages stimulated with aldo. The format is cell-based. To be noted: aldo 10 nM; peritoneal macrophages from WT mice. As for the experimental part:
as §1, §2

Structures are written as SMILES.

For the compound `C[C@]12CCC(=O)C=C1CC[C@@H]1[C@@H]2[C@@H](O)C[C@]2(C=O)[C@@H](C(=O)CO)CC[C@@H]12` [aldo, Aldosterone], the “NGAL expression in dendritic cells” value at MR [1] (aldo 10 nM) was “upregulated”. The “NGAL expression in macrophages” value at MR [2] is given as “aldo/MR target gene in the macrophages”. `CC(=O)S[C@@H]1CC2=CC(=O)CC[C@]2(C)[C@H]2CC[C@@]3(C)[C@@H](CC[C@@]34CCC(=O)O4)[C@H]12` [spironolactone]: the “aldo-induced NGAL upregulation in dendritic cells” value on MR [1] (spironolactone 5 μM plus aldo 10 nM) is given as “blocked”.
